# No end group written: not given here.
# Tests used:
# [1] = biological target: T1, HIV transcriptase (HIV-RT) (Human immunodeficiency virus type 1 group M subtype B, UniProt P04585); assay: Sandwich ELISA detecting HIV-RT with complementary peptides as artificial antibody peptides; format: binding; conditions: wells coated with ESLA 2340, detection with biotin-labeled TLMA 2993 and peroxidase-labeled avidin
# T1 construct: reverse transcriptase (abbreviated as RT hereinafter)
# Experimental: Wells of a 96 well plate were coated with ESLA 2340 in advance. After adding a diluted solution of HIV-RT in each well and allowing the plate to stand overnight at 4° C., the plate was washed and biotin-labeled TLMA 2993 was added to each well. The plate was allowed to stand for 1 hour at room temperature. After washing the plate again, peroxidase-labeled avidin was added to allow it to react at room temperature for 1 hour. After washing the plate to remove unreacted avidin, a color development reaction was performed by a conventional method at room temperature by adding a color developing reagent of peroxidase.
# [2] = biological target: T2, reverse transcriptase (RT) of human immunodeficiency virus-1 (HIV-1) (Human immunodeficiency virus type 1 group M subtype B, UniProt P04585); assay: HIV-RT activity assay (primer tRNALys3 elongation on viral genome RNA, autoradiography); format: biochemical; conditions: for IC50: 50% suppression concentrations against RT, 50 ng HIV-RT, 37° C., 15 minutes; for suppressing activity against RT activity: result in words
# T2 construct: reverse transcriptase (abbreviated as RT hereinafter)
# Source text: Complementary peptides against peptides at each site of reverse transcriptase (abbreviated as RT hereinafter) of a pathogenic virus of AIDS, human immunodeficiency virus-1 (HIV-1), were automatically designed using an analysis program (MIMETIC), and the peptides shown in Table 1 were designed. The designed peptides were synthesized by a conventional solid phase method by allowing 9-fluorenylmethoxycarbonyl (Fmoc) amino acids to sequentially bind using a peptide synthesizer (trade name: AMS 422 Multiple Peptide Synthesizer, manufactured by ABiMED Co.). The synthesized peptide was released from the solid support by a conventional method, and protective groups were removed. The peptide obtained was recovered by ether precipitation, and was purified with reversed phase HPLC after removing ether by drying. A culture supernatant of PLB cells (established human lymphocyte strain) infected with HIV-1 was placed on a top layer of layered 65% and 15% sucrose solutions in a ultracentrifuge tube, and HIV-1 particles were retrieved by ultracentrifugation for 1 hour at 26,500 rpm. Virus RNA was extracted by a guanidine isothiocyanate method (Chomezynski, P. and Sacchi, N., RNA Isolation from Cultured cells, Analytical Biochemistry, 162: 156-159, 1987), and the extract was used by dissolving in 5 mM Tris buffer (pH 7.5). The amount of the whole length virus genome RNA contained in the total RNA sample was quantified according to a conventional ribonuclease protection method (Kaye, J. F. et al., Cis-acting Sequences Involved in Human Immunodeficiency Virus Type 1 RNA Packaging, J. Virol, 69: 6588-6592, 1995; and Huang, Y. et al., The Role of Nucleocapsid and U5 stem/A rich Loop Sequences in tRNA (3Lys) Genomic Placement and Initiation of Reverse Transcription in Human Immunodeficiency Virus Type 1, J. Virol., 72: 3907-3915, 1997). The virus genome binds to tRNA^Lys3 in the cell, and can be used for measuring RT activity. The RNA genome of about 5×10^7 molecules was allowed to react with 50 ng of HIV-RT, 10 units of […] and dNTP's (deoxynucleic acid) at 37° C. for 15 minutes in 20 μl of RTbuffer (50 mMTris-HCl, pH 7.5, 60 mM KCl, 3 mM MgCl2 and 10 mM DTT). The sequence at the tip of the molecule comprises six bases of CTGCTA. One base was added to tRNA^Lys3 using ^32P-dCTP with a radioactivity of 5 μci, and 6 bases were further added by allowing 0.2 mM of dCTP, 0.2 mM of dTTP, 5 μCi of ^32p-dGTP and 0.05 mM of ddATP to react. The elongated primer was retrieved by ethanol precipitation, and was analyzed by auto-radiography through electrophoresis on 6% polyacrylamide gel containing 7 M urea.
# ProCPR [3] = biological target: T3, ProCPR (Homo sapiens, UniProt Q96IY4); assay: Surface plasmon resonance analyzer (Biacore) reactivity to ProCPR; format: binding
# T3 sequence (Q96IY4 23-423 limits assumed): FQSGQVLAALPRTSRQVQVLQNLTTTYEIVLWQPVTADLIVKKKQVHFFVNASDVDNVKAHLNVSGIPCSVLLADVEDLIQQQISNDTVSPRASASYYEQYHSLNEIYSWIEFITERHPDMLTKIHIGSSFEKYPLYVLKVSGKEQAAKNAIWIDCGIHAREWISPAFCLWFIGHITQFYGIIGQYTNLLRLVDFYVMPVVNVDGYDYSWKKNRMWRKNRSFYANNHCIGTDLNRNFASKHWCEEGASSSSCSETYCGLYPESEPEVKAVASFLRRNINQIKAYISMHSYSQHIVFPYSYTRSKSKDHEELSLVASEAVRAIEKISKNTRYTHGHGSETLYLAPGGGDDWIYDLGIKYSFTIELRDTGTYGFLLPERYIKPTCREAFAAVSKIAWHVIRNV
# [4] = biological target: T4, Pro-carboxypeptidase R (ProCPR) (Homo sapiens, UniProt Q96IY4); assay: Activation of ProCPR to CPR by thrombin-thrombomodulin (T/TM) complex, hippuryl-L-arginine substrate; format: biochemical; conditions: 1 μM of peptide
# T4 sequence (Q96IY4 23-423 limits assumed): T3 sequence (Q96IY4 23-423 limits assumed)
# Source text: Pro-carboxypeptidase R (abbreviated as ProCPR hereinafter) is converted into active carboxypeptidase R (abbreviated as CPR hereinafter) by trimming a sequence from an amino terminal to arginine 92 with a trypsin-like enzyme such as thrombin and plasmin. A complementary peptide corresponding to the amino acid sequence comprising 30, 24, 20, 15 or 11 amino acids from amino acid 87 counted from the amino terminal of the ProCPR was automatically designed using the analysis program MIMETIC of the invention, and the peptides shown in Table 2 were designed. An action on the activation reaction of ProCPR by a thrombin-thrombomodulin complex (abbreviated as T/TM complex hereinafter) was analyzed with respect to the peptides (the peptides in notes (1) and (2) in Table 2) comprising 20 and 15 amino acids of the complementary peptides described above. The designed peptides were synthesized by a conventional solid state method by which 9-fluorenylmethoxycarbonyl (Fmoc) amino acids are sequentially linked using a peptide synthesizer (trade name: AMS 422 Multiple Peptide Synthesizer, manufactured by ABiMED Co.) The synthesized peptide was released by a conventional method, and protecting groups were removed. The peptide obtained was retrieved by ether precipitation, and was purified by reversed phase HPLC after removing ether by drying. The purified peptides comprising 20 and 15 amino acids were allowed to react with ProCPR for 10 minutes at room temperature, followed by allowing the T/TM complex to react. After a reaction for 45 minutes at 37° C. by adding hippuril-L-arginine which is substrate of CPR, free hippuric acid was measured according to a reported method (Komura, H., et al., Effect of Anticoagulants in Colorimetric Assay for Basic Carboxypeptidase, Microbiol. Immunol., 46: 115-117, 2002). When 20-mer peptide and 15-mer peptide were added, activation of ProCPR to CPR with the T/TM complex was suppressed by adding 1 μM of respective peptides. […]
# ProCPR [5] = biological target: T5, ProCPR (Homo sapiens, UniProt Q96IY4); assay: Plate ELISA: VGG-coated plate, human plasma containing ProCPR, biotin-labeled 10G1 antibody; format: binding; conditions: plate coated with VGG, diluted human plasma
# T5 construct: diluted human plasma containing ProCPR; from tissue; host or cells: human plasma
# T5 sequence (Q96IY4 115-423): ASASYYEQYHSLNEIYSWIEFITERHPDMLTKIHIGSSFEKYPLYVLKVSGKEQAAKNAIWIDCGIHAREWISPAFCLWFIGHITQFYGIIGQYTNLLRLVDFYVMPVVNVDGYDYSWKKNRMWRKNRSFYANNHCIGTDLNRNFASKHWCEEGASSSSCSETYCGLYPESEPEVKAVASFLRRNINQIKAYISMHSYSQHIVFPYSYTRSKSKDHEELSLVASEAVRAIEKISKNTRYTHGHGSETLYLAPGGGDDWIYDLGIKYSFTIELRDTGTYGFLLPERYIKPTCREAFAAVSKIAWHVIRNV
# Experimental: After coating the plate with VGG and washing the plate, diluted human plasma containing ProCPR was added to the plate and was allowed to react for 1 hour at room temperature. After removing excess plasma by washing the plate, 10G1 as a […] was added followed by allowing it to react for 1 hour at room temperature. Excess 10G1 antibody was removed by washing the plate, and remaining 10G1 antibody was allowed to react by adding peroxidase-labeled avidin. After removing unreacted avidin by washing, the reaction solution was made to develop a color by a conventional method depending on the strength of the enzyme reaction of peroxidase by adding a peroxidase color development reagent, and the intensity of the color was measured with a plate reader.
Sequence,color development depending on concentration of HIV-RT (sandwich ELISA) [1],IC50 [2] [µM],suppressing activity against RT activity [2],suppression of activation of ProCPR to CPR with the T/TM complex [4],other results
ESLALYKSLQQSEMLLELEL [ESLA2340],A color was developed depending on the concentration of HIV-RT,17,confirmed to suppress the activity of transcriptase,–,–
"PSTWPTFLKFQLK [PSTW1594, PSTWPTFLKFQLK]",–,15,–,–,–
TLMALELKGKLLLAGLAPSAFLPLSFPEL [TLMA2993],A color was developed depending on the concentration of HIV-RT,15,confirmed to suppress the activity of transcriptase,–,–
VGGRRTRARRVLLLVLTETH [complementary (mimetic) peptide to ProCPR positions 87-106],–,–,–,confirmed to suppress activation of ProCPR,reactivity to ProCPR by surface plasmon resonance (ProCPR [3]): confirmed to be reactive to ProCPR; suppression of activation of ProCPR to CPR with the T/TM complex ([4]; listed as 20-mer peptide): suppressed; color development depending on concentration of plasma containing ProCPR (ELISA) (ProCPR [5]): color was developed depending on the concentration of the plasma
"VSRGRRRDRRILMII [15-mer peptide, complementary (mimetic) peptide to ProCPR positions 87-101]",–,–,–,suppressed,–

# Source: US20060275826A1, “Artificial antibody comprising complementary peptide” (priority 2003, published 2006)
